The test system of experiment [1] is NQO1 specific enzyme activity in BEAS-2B cells. The experiment is described as follows: BEAS-2B NQO1 MTT Assay. Type of experiment: cell-based. Particulars: NQO1 specific activity induction. The essentials:
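BEAS-2B cells exposed to compound for 48 h at 37 °C, 5% CO2, then lysed. NQO1 activity in crude lysate read kinetically by MTT cocktail absorbance at 570 nm over 30 min. pEC50 from ΔOD/min versus log concentration, 3-parameter fit.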

In a further experiment the target is T1, NRF2/Keap1 (Homo sapiens, UniProt Q14145).
T1 construct: full length NRF2 protein and full length Keap1 protein (Keap1 exists a dimer) are used
T1 sequence (Q14145 whole entry): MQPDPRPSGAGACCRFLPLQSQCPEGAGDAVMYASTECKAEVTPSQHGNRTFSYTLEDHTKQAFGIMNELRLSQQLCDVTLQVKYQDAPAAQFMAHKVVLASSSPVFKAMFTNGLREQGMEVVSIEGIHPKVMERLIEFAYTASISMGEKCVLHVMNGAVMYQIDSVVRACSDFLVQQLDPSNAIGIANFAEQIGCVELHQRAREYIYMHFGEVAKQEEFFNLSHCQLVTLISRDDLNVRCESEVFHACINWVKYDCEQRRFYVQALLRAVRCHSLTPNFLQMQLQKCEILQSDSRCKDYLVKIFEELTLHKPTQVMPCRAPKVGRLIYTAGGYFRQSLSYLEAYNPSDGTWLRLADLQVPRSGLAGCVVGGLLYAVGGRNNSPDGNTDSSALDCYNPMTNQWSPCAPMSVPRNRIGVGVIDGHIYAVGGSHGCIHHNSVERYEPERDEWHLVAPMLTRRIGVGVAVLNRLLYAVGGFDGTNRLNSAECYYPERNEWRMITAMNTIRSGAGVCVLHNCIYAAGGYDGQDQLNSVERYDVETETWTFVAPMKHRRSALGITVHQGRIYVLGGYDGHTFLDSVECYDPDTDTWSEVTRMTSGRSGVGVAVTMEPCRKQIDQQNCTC
Description: NRF2-Keap1 TR-FRET Assay (full length NRF2 and full length Keap1). Type of experiment: binding. Particulars: 25 nM Keap1-FlagHis, 50 nM biotin-NRF2 added. An excerpt: In the NRF2-Keap1 TR-FRET (time-resolved fluorescence resonance energy transfer) assay, full length NRF2 protein and full length Keap1 protein (Keap1 exists a dimer) are used. The assay detects the ability of compound to displace the binding of FlagHis-tagged Keap1 with biotinylated, Avi-tagged NRF2 protein. Biotin-NRF2 binds to streptavidin-europium (a component of the detection mix) and Keap1-FlagHis is recognized by anti-Flag APC (allophycocyanin) antibody (also a component of the detection mix). If binding occurs between the two proteins, there will be an energy transfer from the Eu+3 (donor) at 615 nm to the APC (acceptor) at 665 nm. A potential Keap1 inhibitor will cause a reduction in the TR-FRET signal by interfering with the binding of Keap1 to NRF2.
One hundred nanoliters of 100× compound dose response curves (serial 3-fold dilutions) in DMSO are stamped using an Echo liquid handling system (Labcyte) into 384-well, low volume, black assay plates (Greiner, #784076), with DMSO in columns 6 and 18. The top concentration of compound is located in columns 1 and 13. All reagents are diluted in assay buffer (50 mM Tris, pH 8.0, 5 mM MgCl2, 100 mM NaCl, 0.005% BSA, 1 mM DTT, and 2 mM CHAPS). The BSA, DTT, and CHAPS are added to the assay buffer on the day of assay. Using a Multidrop Combi (Thermo Electron Corporation) equipped with a metal tip dispenser, 5 ul of 25 nM Keap1-FlagHis protein is added to all wells of the compound plate, with the exception of the wells in column 18. Wells in column 18 receive 5 ul of assay buffer instead. Plates are centrifuged at 500 rpm for 1 minute, covered with a plate lid, and incubated at 37° C. for 2.25 hours. Plates are then removed from the incubator and allowed to cool to RT for 15 minutes. Five microliters of 50 nM biotin-NRF2 protein is then added to all wells of the plates and the plates are spun at 500 rpm for 1 minute, followed by incubating at 4° C. for 1.25 hours. The plates are then allowed to warm to RT for 15 minutes, followed by the addition of 10 ul of detection mix (1 nM Streptavidin Eu+ W1024 and 5 ug/ml mouse anti-DYKDDDDK IgG conjugated to SureLight APC antibody; both from Columbia Biosciences) to all wells. Plates are spun at 500 rpm for 1 minute, incubated for 1 hour at RT, and read on an Envision plate reader using a 320 nm excitation filter and 615 nm and 665 nm emission filters. Compound response (% inhibition) and potency (pIC50) are calculated based on the ratio of the two emissions (665 nm/615 nm) and then the transformed data is normalized against controls in the assay (control 1=1% DMSO in the presence of NRF2 and Keap1 protein and control 2=1% DMSO in the absence of protein). Data analysis is handled using the software package Abase XE (Surrey, United Kingdom). The % inhibition values are calculated from the ratio (transformed) data by the equation: 100−(100*(compound response-average control 2)/(average control 1−average control 2)).
For calculation of pIC50s, Abase XE uses a four parameter equation.
A general note: TR-FRET usually uses a lanthanide donor and a delayed reading to cut background.

As a reminder, the EC50 is the concentration that produces a half-maximal response. High values mean a less potent agent, low ones a more potent agent. Usually IC50 stands for the concentration needed to halve the response being measured. A lower IC50 goes with inhibition by little substance.

Regarding `CCCCC1CCCN1C(=O)C1CCCC(c2cccc(-n3ncc(C(=O)O)c3C3CC3)c2)C1` (racemic) [Example 8c, 1-{3-[3-(2-Butylpyrrolidine-1-carbonyl)cyclohexyl]phenyl}-5-cyclopropyl-1H-pyrazole-4-carboxylic Acid], in experiment [1] (Homo sapiens, BEAS-2B, 48 h), the concentration for a half-maximal effect (EC50) was in the range of 100 to 1000 nM. At NRF2/Keap1, this compound registered a 50% inhibitory concentration (IC50) of 100 to 1000 nM.

As for `CC(C)CCC1CCCN1C(=O)C1CCCC(c2cccc(-n3ncc(C(=O)O)c3C3CC3)c2)C1` (racemic) [Example 11, 5-Cyclopropyl-1-(3-{3-[2-(3-methylbutyl)pyrrolidine-1-carbonyl]cyclohexyl}phenyl)-1H-pyrazole-4-carboxylic Acid], the half-maximal effective concentration (EC50) in experiment [1] (Homo sapiens, BEAS-2B, 48 h) lay in the range of 100 to 1000 nM. Moreover, on NRF2/Keap1, the half-maximal inhibitory concentration (IC50) lay within 100 to 1000 nM.

Take `O=C(O)c1cnn(-c2cccc(C3CCCC(C(=O)N4CCCC4C4CC4)C3)c2)c1C1CC1` (racemic) [Example 12, 5-cyclopropyl-1-{3-[3-(2-cyclopropylpyrrolidine-1-carbonyl)cyclohexyl]phenyl}-1H-pyrazole-4-carboxylic Acid]: the half-maximal effective concentration (EC50) in experiment [1] (Homo sapiens, BEAS-2B, 48 h) fell in the range of 100 to 1000 nM. For the same compound, the IC50 against NRF2/Keap1 was 100 to 1000 nM.

On to `CC1(C)CCc2cnn([C@@H]3CCC[C@@H](c4cccc(-n5ncc(C(=O)O)c5C5CC5)c4)C3)c21` (racemic) [Example 23, 5-Cyclopropyl-1-(3-(t-3-(6,6-dimethyl-5,6-dihydrocyclopenta[c]pyrazol-1(4H)-yl)cyclohexyl)phenyl)-1H-pyrazole-4-carboxylic Acid], for which the EC50 in experiment [1] (Homo sapiens, BEAS-2B, 48 h) was in the range of 100 to 1000 nM. Also, the IC50 against NRF2/Keap1 lay within 10000 to 100000 nM.

In experiment [1] (48 hours), `CCOC[C@@H]1CCCN1C(=O)C1CCCC(c2cccc(-n3ncc(C(=O)O)c3C3CC3)c2)C1` (single isomer, unassigned) [Example 18g] yielded an EC50 of 100 to 1000 nM. The IC50 against NRF2/Keap1 was 10 to 100 nM.

As to `CCCC[C@@H]1CCCN1C(=O)[C@H]1CCC[C@@H](c2cccc(-n3ncc(C(=O)O)c3C3CC3)c2)C1` [Example 17f, 1-{3-[(1R,3S)-3-[(2R)-2-Butylpyrrolidine-1-carbonyl]cyclohexyl]phenyl}-5-cyclopropyl-1H-pyrazole-4-carboxylic Acid], in experiment [1] (Homo sapiens, BEAS-2B, 48 h), the EC50 was in the range of 10 to 100 nM. Moreover, at NRF2/Keap1, the IC50 lay within 10 to 100 nM.

Take `O=C(O)c1cnn(-c2cccc(C3=CC(C(=O)N4CCCCCC4)CCC3)c2)c1C1CC1` (stereo not drawn) [Example 19, 1-(5′-(Azepane-1-carbonyl)-2′,3′,4′,5′-tetrahydro-[1,1′-biphenyl]-3-yl)-5-cyclopropyl-1H-pyrazole-4-carboxylic Acid]: in experiment [1] (Homo sapiens, BEAS-2B, 48 h), the concentration giving a half-maximal response (EC50) fell in the range of 1000 to 10000 nM. On NRF2/Keap1, this compound registered an IC50 of 1000 to 10000 nM.

The compound `CCCCC1CCc2cnn([C@@H]3CCC[C@@H](c4cccc(-n5ncc(C(=O)O)c5C5CC5)c4)C3)c21` (stereo partly drawn) [Example 38, 1-(3-((1,3-trans)-3-(6-Butyl-5,6-dihydrocyclopenta[c]pyrazol-1(4H)-yl)cyclohexyl)phenyl)-5-cyclopropyl-1H-pyrazole-4-carboxylic Acid] returned an EC50 in experiment [1] (48 hours) of 100 to 1000 nM. Further, at NRF2/Keap1, the IC50 lay within 10000 to 100000 nM.

`Cn1cc(C2CC2c2c(C(=O)O)cnn2-c2cccc([C@@H]3CCC[C@H](n4ncc5c4C(C)(C)CC5)C3)c2)nn1` (stereo partly drawn) [Example 39, 1-(3-((1R,3S)-3-(6,6-Dimethyl-5,6-dihydrocyclopenta[c]pyrazol-1(4H)-yl)cyclohexyl)phenyl)-5-(2-(1-methyl-1H-1,2,3-triazol-4-yl)cyclopropyl)-1H-pyrazole-4-carboxylic Acid] gave a concentration giving a half-maximal response (EC50) in experiment [1] (Homo sapiens, BEAS-2B, 48 h) of 100 to 1000 nM. Besides, the concentration for half-maximal inhibition (IC50) on NRF2/Keap1 is 10 to 100 nM.

With `Cn1cc(C2CC2c2c(C(=O)O)cnn2-c2cccc([C@H]3CCC[C@H](n4ncc5c4C(C)(C)CC5)C3)c2)nn1` (stereo partly drawn) [Example 40, 1-(3-((1,3-trans)-3-(6,6-Dimethyl-5,6-dihydrocyclopenta[c]pyrazol-1(4H)-yl)cyclohexyl)phenyl)-5-(2-(1-methyl-1H-1,2,3-triazol-4-yl)cyclopropyl)-1H-pyrazole-4-carboxylic Acid], in experiment [1] (Homo sapiens, BEAS-2B, 48 h), the EC50 was 1000 to 10000 nM. Also, the IC50 on NRF2/Keap1 lay in the range of 100 to 1000 nM.

Compound `CCCCC1CCCC1N(C)C(=O)C1CCCC(c2cccc(-n3ncc(C(=O)O)c3C3CC3)c2)C1` (stereo not drawn) [Example 41, 1-(3-(3-((2-Butylcyclopentyl)(methyl)carbamoyl)cyclohexyl)phenyl)-5-cyclopropyl-1H-pyrazole-4-carboxylic Acid] showed a concentration for a half-maximal effect (EC50) in experiment [1] (Homo sapiens, BEAS-2B, 48 h) of 100 to 1000 nM. At NRF2/Keap1, this compound gave an IC50 of 1000 to 10000 nM.

`CCCCC1CCCN1C(=O)C1CCCC(c2cccc(-n3ncc(C(=O)O)c3C3CC3c3cn(C)nn3)c2)C1` (stereo not drawn) [Example 42, 1-(3-(3-(2-Butylpyrrolidine-1-carbonyl)cyclohexyl)phenyl)-5-(2-(1-methyl-1H-1,2,3-triazol-4-yl)cyclopropyl)-1H-pyrazole-4-carboxylic Acid]: in experiment [1] (Homo sapiens, BEAS-2B, 48 h), the half-maximal effective concentration (EC50) was 1000 to 10000 nM. Also, the IC50 against NRF2/Keap1 fell in the range of 100 to 1000 nM.
